Test systems include 786-0; A498; DU-145; EKVX; HT-29; IGROV-1; K562; MDA-MB-435; NCI-H226; NCI-H460; OVCAR-4; RPMI-8226; SF-539; SK-MEL-28; SN12C; SNB-75; SR; TK-10; UACC-257; UO-31.
Common to all, as to assay: growth of human tumour cells (NCI), 48 h

Experimental findings from ChEMBL document CHEMBL1201862, “PubChem BioAssay data set” (2004) are described below.

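1) Cells in 96-well plates. 2) Compound, 48 h, 5 concentrations. 3) Linear interpolation between surrounding doses. 4) Unreached endpoint = highest concentration. Abbreviation: GI50, concentration required for 50% inhibition of growth.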 Activity calls are given as the source filed them. No stated cut-off is given here; in the data, active = GI50 up to about 1.1 µM and inactive = higher.

In the case of `COCCOC1=CC(=O)c2c(O)ccc(O)c2C1=O`, the GI50 was 1.64 µM (inactive) in the assay with 786-0; 1.79 µM (inactive) with A498; 0.893 µM (active) with DU-145; 2.14 µM (inactive) in the assay with EKVX; 0.585 µM (active) with HT-29; 1.72 µM (inactive) with IGROV-1. Further, the GI50 in the assay on K562 is 2.69 µM (inactive); in the assay on MDA-MB-435, 0.179 µM (active); in the assay with NCI-H226, 2.23 µM (inactive); with NCI-H460 it was 1.58 µM (inactive); in the assay on OVCAR-4, 1.89 µM (inactive); with RPMI-8226, 4.28 µM (inactive). The GI50 in the assay with SF-539 was 1.73 µM (inactive); in the assay with SK-MEL-28, 1.52 µM (inactive); with SN12C, 1.63 µM (inactive); in the assay with SNB-75, 2 µM (inactive); with SR, 5.01 µM (inactive); in the assay with TK-10, 1.91 µM (inactive). The GI50 in the assay with UACC-257 is 0.203 µM (active); in the assay with UO-31, 2.17 µM (inactive).
Turning to `CC(=O)O[C@H]1CC[C@@]2(C)C(=CC[C@@H]3[C@@H]2CC[C@]2(C)C(=N/O)/C(=C\c4ccccc4)C[C@@H]32)C1`, the GI50 with 786-0 is 13.9 µM (inactive); in the assay with A498 it was 13.4 µM (inactive); in the assay on DU-145 it was 23.4 µM (inactive); in the assay on EKVX, 4.86 µM (inactive); with HT-29, 3.99 µM (inactive); in the assay with IGROV-1, 44.2 µM (inactive). The GI50 with K562 was 31.2 µM (inactive); in the assay with MDA-MB-435, 3.89 µM (inactive); in the assay on NCI-H226, 12.5 µM (inactive); in the assay with NCI-H460, 17.5 µM (inactive); in the assay on OVCAR-4 it was 30.1 µM (inactive); in the assay with RPMI-8226, 33.7 µM (inactive). For the same compound, the GI50 in the assay on SF-539 is 15.9 µM (inactive); with SK-MEL-28, 12.7 µM (inactive); in the assay with SN12C it was 14.8 µM (inactive); in the assay with SNB-75, 33.6 µM (inactive); with SR, 3.27 µM (inactive); in the assay on TK-10 it was 24.2 µM (inactive). In addition, the GI50 in the assay with UACC-257 was 6.52 µM (inactive); in the assay on UO-31, 9.06 µM (inactive).
With `O=c1[nH]nc(-c2ccccc2)n1/N=C/c1ccc([N+](=O)[O-])cc1`, the GI50 was 6.64 µM (inactive) in the assay on 786-0; 14.6 µM (inactive) in the assay on A498; 56.1 µM (inactive) in the assay on DU-145; > 80.4 µM (inactive) in the assay with EKVX; > 100 µM (inactive) in the assay on HT-29; > 58.7 µM (inactive) in the assay on IGROV-1. Besides, the GI50 in the assay with K562 was > 100 µM (inactive); with MDA-MB-435, > 100 µM (inactive); with NCI-H226, 27.6 µM (inactive); in the assay with NCI-H460 it was 22.9 µM (inactive); in the assay on OVCAR-4 it was 3.85 µM (inactive); in the assay with RPMI-8226, > 100 µM (inactive). The GI50 in the assay with SF-539 was 17.1 µM (inactive); with SK-MEL-28, > 100 µM (inactive); in the assay with SN12C, > 62.1 µM (inactive); in the assay on SNB-75 it was 10.4 µM (inactive); in the assay with SR, > 100 µM (inactive); with TK-10 it was 20 µM (inactive). Moreover, the figures for the GI50 with UACC-257 and in the assay with UO-31 were > 100 µM (inactive) and 11.2 µM (inactive), respectively.
Consider `CC(=O)CC1(O)C(=O)c2c(Br)sc(Br)c2C1=O`, for which the GI50 in the assay with 786-0 was 23.7 µM (inactive); with A498, > 100 µM (inactive); in the assay on DU-145 it was 42.8 µM (inactive); with EKVX, 20 µM (inactive); in the assay on HT-29, 21.7 µM (inactive); in the assay on IGROV-1, 17 µM (inactive). In addition, the GI50 in the assay with K562 is 32.8 µM (inactive); with MDA-MB-435 it was 20 µM (inactive); with NCI-H226, 65.6 µM (inactive); in the assay with NCI-H460 it was 45.1 µM (inactive); with OVCAR-4, 18.6 µM (inactive); with RPMI-8226, 31.3 µM (inactive). Further, the GI50 in the assay with SF-539 was 23.6 µM (inactive); with SK-MEL-28 it was 20.7 µM (inactive); in the assay with SN12C, 19.4 µM (inactive); in the assay with SNB-75, 59.7 µM (inactive); in the assay on SR, 21.1 µM (inactive); with TK-10, 25.9 µM (inactive). Further, the GI50 with UACC-257 is 19.6 µM (inactive); with UO-31, 32.2 µM (inactive).
Turning to `C/C(=C\[C@H]1C[C@@H]([C@@H]2CC[C@]34C[C@]23C=C[C@@H]2[C@@]3(C)CC=C5C[C@@H](c6ccccc6)OC[C@]5(C)[C@@H]3C[C@@H](O)[C@]24C)C(=O)O1)CO` [DICHAPETALIN A], the GI50 in the assay on 786-0 is 4.38 µM (inactive); with A498, 0.437 µM (active); with DU-145 it was 10.2 µM (inactive); in the assay with EKVX, 1.51 µM (inactive); in the assay with HT-29, 2.01 µM (inactive); with IGROV-1 it was 2.92 µM (inactive). Also, the GI50 in the assay on K562 was 0.553 µM (active); in the assay with MDA-MB-435, 2.48 µM (inactive); with NCI-H226, 14.9 µM (inactive); with NCI-H460, 0.721 µM (active); in the assay with OVCAR-4 it was 3.03 µM (inactive); in the assay on RPMI-8226, 0.624 µM (active). The GI50 in the assay on SF-539 was 5.08 µM (inactive); in the assay on SK-MEL-28, 3.74 µM (inactive); with SN12C, 1.91 µM (inactive); with SNB-75, 3.55 µM (inactive); with SR it was < 0.01 µM (active); in the assay with TK-10, 2.84 µM (inactive). The GI50 in the assay on UACC-257 is 1.96 µM (inactive); in the assay with UO-31, 2.48 µM (inactive).
For `Oc1ccccc1/C=N/N1C(=S)N(c2ccccc2)C(=N\c2ccccc2)/C1=N/c1ccccc1`, the GI50 in the assay with 786-0 is 2.72 µM (inactive); with A498, 5.33 µM (inactive); with DU-145 it was 16.9 µM (inactive); with EKVX, 14.9 µM (inactive); with HT-29, 3.63 µM (inactive); in the assay with IGROV-1 it was 14 µM (inactive). Besides, the GI50 with K562 is 28.6 µM (inactive); with MDA-MB-435 it was 22.3 µM (inactive); in the assay on NCI-H226, 11.6 µM (inactive); in the assay on NCI-H460, 12.4 µM (inactive); in the assay with OVCAR-4, 1.27 µM (inactive); in the assay with RPMI-8226 it was > 35.6 µM (inactive). Further, the GI50 is 4.81 µM (inactive) with SF-539; 26.8 µM (inactive) in the assay on SK-MEL-28; 12.4 µM (inactive) in the assay on SN12C; 3.21 µM (inactive) with SNB-75; 18.7 µM (inactive) in the assay with SR; 8.28 µM (inactive) in the assay on TK-10. Besides, the values for the GI50 in the assay with UACC-257 and in the assay with UO-31 were 25.1 µM (inactive) and 14 µM (inactive), respectively.
Take `OC(/C(=N/c1ccccc1)c1ccccc1)c1ccccc1` (stereo not given): the GI50 is 10.8 µM (inactive) in the assay on 786-0; 16.1 µM (inactive) in the assay on A498; 5.35 µM (inactive) with DU-145; 2.48 µM (inactive) in the assay on EKVX; 5.22 µM (inactive) in the assay with HT-29; 9.46 µM (inactive) with IGROV-1. Besides, the GI50 in the assay with K562 was 3.85 µM (inactive); in the assay on MDA-MB-435, 2.75 µM (inactive); in the assay on NCI-H226, 10.8 µM (inactive); in the assay on NCI-H460, 6.5 µM (inactive); in the assay with OVCAR-4 it was 10.2 µM (inactive); in the assay on RPMI-8226, 4.49 µM (inactive). The GI50 in the assay on SF-539 was 11.3 µM (inactive); with SK-MEL-28, 2.66 µM (inactive); in the assay on SN12C, 10.7 µM (inactive); in the assay on SNB-75 it was 5.6 µM (inactive); in the assay with SR it was 3.53 µM (inactive); with TK-10 it was 2.72 µM (inactive). The GI50 is 2.17 µM (inactive) in the assay with UACC-257 and 18 µM (inactive) with UO-31.
